The source of these data is ChEMBL document CHEMBL1129182, “Oximes: A new class of methoxytetrahydropyranyl inhibitors of leukotriene biosynthesis with high in vitro and in vivo potency” (Bioorg Med Chem Lett, 1996).

For one series, the species on record is Homo sapiens. Kind of series: In vitro inhibitory activity against LTB4 synthesis in A-23187 stimulated human whole blood (HB1). The series is classed as functional.
Series [1] is described as follows: pKa value was evaluated. In kind it is physicochemical.
For another series, the species on record is Rattus norvegicus. The experiment in a line: compound was tested for oral activity in the rat using zymosan-inflamed air pouch exudate at 3 hrs post dose(RAP). The series is classed as functional.
The nature of series [2]: Solubility was evaluated. The series is classed as physicochemical.

Converted amounts (≈) assume the structure as drawn. Bounds are passed on as bounds.

On to `COC1(c2cc(F)cc(Sc3ccc4c(c3)OCC/C4=N\OCC#N)c2)CCOCC1`, for which the IC50 (commonly the concentration needed to halve the response being measured) in the series filed under Homo sapiens came out at 40 nM.
`COC1(c2cc(F)cc(Sc3ccc(/C(=N/O)C(F)(F)F)cc3)c2)CCOCC1` yielded a half-inhibitory concentration (IC50) in the series listed under Homo sapiens of 280 nM. Moreover, in series [1], the pKa (commonly the pH at which an ionisable group is half protonated) was determined as 7.68.
In the series listed under Homo sapiens, `COC1(c2cc(F)cc(Sc3ccc(/C(C)=N/OC(C)C)cc3)c2)CCOCC1` gave an IC50 of 920 nM.
On to `COC1(c2cc(F)cc(OCc3ccc4c(ccc(=O)n4C)c3)c2)CCOCC1` [ZD-2138], for which, in the series filed under Homo sapiens, the IC50 was found to be 25 nM.
On the same count and under the same terms, the result for `CO/N=C(\C)c1ccc(Sc2cc(F)cc(C3(OC)CCOCC3)c2)cc1` reads 110 nM; that for `COC1(c2cc(F)cc(Sc3ccc4c(c3)CC/C4=N\O)c2)CCOCC1`, 290 nM; that for `COC1(c2cc(F)cc(Sc3ccc(/C(C)=N/OC(C)=O)cc3)c2)CCOCC1`, 50 nM.
Same read-out and setting: the value for `CCOC(=O)CO/N=C(\C)c1ccc(Sc2cc(F)cc(C3(OC)CCOCC3)c2)cc1` was 610 nM.
Take `CO[C@]1(c2cc(F)cc(Sc3ccc(/C(C)=N/OCC#N)cc3)c2)CCO[C@@H](C)C1`: the half-maximal inhibitory concentration (IC50) in the series filed under Homo sapiens stood at 40 nM. Moreover, the median effective dose (ED50) (in general, the dose at which the effect has come halfway, by size or by number of responders) in the series listed under Rattus norvegicus amounted to 0.15 mg/kg.
With `COC1(c2cc(F)cc(Sc3ccc(/C(C)=N/OCC(=O)O)cc3)c2)CCOCC1`, the IC50 in the series filed under Homo sapiens was 740 nM.
In the series listed under Homo sapiens, `CO[C@]1(c2cnc(Sc3ccc(/C(C)=N/OCC#N)cc3)s2)CCO[C@@H](C)C1` had an IC50 of 40 nM. The molecule also yielded an ED50 in the series listed under Rattus norvegicus of 0.3 mg/kg.
With `COC1(c2cc(F)cc(Sc3ccccc3/C(C)=N/O)c2)CCOCC1`, in the series filed under Homo sapiens, the IC50 was over 10000 nM.
Regarding `CO[C@]1(c2cnc(Sc3ccc(/C(C)=N/O)cc3)s2)CCO[C@@H](C)C1`, in the series listed under Homo sapiens, the IC50 is 40 nM. In the series filed under Rattus norvegicus, this molecule came in with a 50% effective dose (ED50) of 0.3 mg/kg.
Regarding `CO/N=C(\C)c1ccc(Sc2cc(F)cc([C@@]3(OC)CCO[C@@H](C)C3)c2)cc1`, half-maximal inhibition in the series listed under Homo sapiens (IC50) was put at 140 nM. The molecule further yielded an ED50 in the series filed under Rattus norvegicus of 0.15 mg/kg.
The matching figures for `COC1(c2csc(Sc3ccc4c(c3)OCC/C4=N\OCC#N)c2)CCOCC1`: 60 nM and 0.15 mg/kg.
In the series filed under Homo sapiens, `COC1(c2csc(Sc3ccc4c(c3)CC/C4=N\OCC#N)c2)CCOCC1` registered an IC50 of 40 nM.
Same read-out and setting: the value for `COC1(c2cc(F)cc(Sc3ccc(/C(C)=N/OCC#N)cc3)c2)CCOCC1` was 20 nM; that for `COC1(c2cc(F)cc(Sc3ccc(/C(C)=N/OCCF)cc3)c2)CCOCC1` was 40 nM.
For `CCOC(=O)/C(=N\O)c1ccc(Sc2cc(F)cc(C3(OC)CCOCC3)c2)cc1`, in the series listed under Homo sapiens, the IC50 is 170 nM. This molecule also displayed a pKa in series [1] of 9.3.
`COC1(c2cc(F)cc(Sc3ccc(/C(C#N)=N/O)cc3)c2)CCOCC1` displayed an IC50 in the series filed under Homo sapiens of 250 nM. The pKa in series [1] came to 6.2.
On to `COC1(c2cc(F)cc(Sc3ccc4c(c3)CC/C4=N\OCC#N)c2)CCOCC1`, for which 30 nM corresponded to half-maximal inhibition in the series filed under Homo sapiens (IC50).
For the molecule `CO[C@]1(c2cnc(S(=O)(=O)c3ccc(/C(C)=N/O)cc3)s2)CCO[C@@H](C)C1`, in series [2], the solubility (as a rule, the concentration that dissolves in the medium under given conditions) came to 31 µM (≈ 12.7 µg/mL). Further, the 50% inhibitory concentration (IC50) in the series filed under Homo sapiens was determined as 320 nM. For the same molecule, it took a dose of 1 mg/kg to reach the 50% effect level in the series filed under Rattus norvegicus (ED50).
As to `C/C(=N\OC(=O)N(C)C)c1ccc(Sc2cc(F)cc(C3CCOCC3)c2)cc1`, in the series listed under Homo sapiens, half-maximal inhibition (IC50) required 2610 nM.
`CO[C@]1(c2cnc(S(=O)(=O)c3ccc(/C(C)=N/OCC#N)cc3)s2)CCO[C@@H](C)C1`: in series [2], the solubility is 1 µM (≈ 0.45 µg/mL). In the series listed under Homo sapiens, this molecule showed an IC50 of 140 nM. This molecule had an ED50 in the series listed under Rattus norvegicus of 0.5 mg/kg.
`COC(=O)C(C)(C)CO/N=C(\C)c1ccc(Sc2cc(F)cc(C3(OC)CCOCC3)c2)cc1` yielded an IC50 in the series filed under Homo sapiens of 420 nM.
In turn, `COC1(c2cc(F)cc(Sc3ccc(/C(=N/O)C(C)=O)cc3)c2)CCOCC1` returned an IC50 in the series filed under Homo sapiens of 850 nM. The pKa in series [1] amounted to 8.4.
Consider `CO[C@]1(c2cc(F)cc(Sc3ccc(/C(C)=N/O)cc3)c2)CCO[C@@H](C)C1`, for which the solubility in series [2] is 0.6 µM (≈ 0.234 µg/mL). The molecule also showed an IC50 in the series filed under Homo sapiens of 40 nM. For the same molecule, in the series listed under Rattus norvegicus, the ED50 worked out at 0.05 mg/kg.
In the series filed under Homo sapiens, `COC1(c2csc(Sc3ccc4c(c3)OCC/C4=N\O)c2)CCOCC1` came in with an IC50 of 40 nM.
Consider `COC1(c2csc(Sc3ccc4c(c3)CC/C4=N\O)c2)CCOCC1`, for which, in the series listed under Homo sapiens, the IC50 is 130 nM.
`COC1(c2cc(F)cc(Sc3ccc(/C(C)=N/OCCSc4nnc(C)s4)cc3)c2)CCOCC1` returned an IC50 in the series listed under Homo sapiens of 230 nM.
The same measure, in the same setting: the result for `COC1(c2cc(F)cc(Sc3ccc(/C(=N/O)SC)cc3)c2)CCOCC1` reads 190 nM; that for `COC1(c2cc(F)cc(Sc3ccc(/C(C)=N/OC(=O)C(C)(C)C)cc3)c2)CCOCC1`, 40 nM.
In series [2], `CO[C@]1(c2cc(F)cc(S(=O)(=O)c3ccc(/C(C)=N/O)cc3)c2)CCO[C@@H](C)C1` gave a solubility of 4.6 µM (≈ 1.94 µg/mL). Further, the midpoint of inhibition in the series listed under Homo sapiens, the IC50, lay at 20 nM. The 50% effect level in the series listed under Rattus norvegicus (ED50) was put at a dose of 0.1 mg/kg.
`CCOC(=O)c1csc(CO/N=C(\C)c2ccc(Sc3cc(F)cc(C4(OC)CCOCC4)c3)cc2)n1` returned an IC50 in the series filed under Homo sapiens of 150 nM.
On the same count and under the same terms, the value for `COC1(c2cc(F)cc(Sc3ccc4c(c3)OCC/C4=N\O)c2)CCOCC1` was 50 nM.
In the case of `CO[C@]1(c2cc(F)cc(S(=O)(=O)c3ccc(/C(C)=N/OCC#N)cc3)c2)CCO[C@@H](C)C1`, the midpoint of inhibition in the series listed under Homo sapiens, the IC50, lay at 60 nM. In the series listed under Rattus norvegicus, this molecule had an ED50 of 0.1 mg/kg.
